From article PMC3722118, “Hellebrin and its aglycone form hellebrigenin display similar in vitro growth inhibitory effects in cancer cells and binding profiles to the alpha subunits of the Na^+/K^+-ATPase” (Molecular Cancer, 2013)
Where two headings read alike, the source gives them in different places.

Key:
human α1β1 NaK complex = target: T1, human α1β1 NaK complex (Homo sapiens, UniProt P05023); conditions: 3H-ouabain displacement; ref Katz et al. [5]; read-out: Affinity (nM) α-1 (KD ± SEM); cited from earlier work
T1 construct: made in house; host or cells: Pichia pastoris strain SMD1165 (membranes)

[1] = test system: PC-3 prostate cancer cells; assay: MTT colorimetric in vitro growth inhibition assay; assay type: cell-based, human; conditions: read-out: IC50 (nM) PC-3
Text: (§1) The histological types and origins of the eight human cancer cell lines that were used for the MTT colorimetric assay are detailed in the legend of Table 1. Two mouse cancer cell lines were also used, the CT26.WT colon cancer cell line (ATCC code CRL-2638) and the B16F10 melanoma cell line (ATCC code CRL-6475). Both cell lines were obtained from the American Type Culture Collection (ATCC, Manassas, VA). A control cell line (human NHDF fibroblasts) was obtained from PromoCell (code c-12300; Heidelberg, Germany). The cell lines detailed in Figure 2A are a generous gift from the National Cancer Institute (NCI, Bethesda, USA) to Steven Karlish’s lab.
(§2) The cancer cells were cultured in RPMI (Lonza, Verviers, Belgium) medium supplemented with 10% heat-inactivated fetal calf serum (Lonza). All culture media were supplemented with 4 mM glutamine, 100 μg/mL gentamicin, 200 U/mL penicillin and 200 μg/mL streptomycin (Lonza). The NHDF fibroblasts were cultured in Lonza medium cc3132 KT FGM-2 BulletKit.
(§3) The overall growth level of the human cancer cell lines was determined using a colorimetric MTT (3-(4,5-dimethylthiazol-2yl)-2,5-diphenyltetrazolium bromide, Sigma, Belgium) assay as detailed previously. Briefly, this test measures the number of metabolically active (thus living) cells that are able to transform the yellow MTT into the blue formazan dye via a mitochondrial reduction involving succinate dehydrogenase. The amount of formazan obtained at the end of the experiment (measured by spectrophotometry) is directly proportional to the number of living cells. The determination of the optical density in the control compared to the treated cells therefore enables quantitative measurements of the effects of compounds on the growth of normal as well as cancer cells in vitro.
(§4) Each experimental condition was performed in six replicates.

T98G glioma cells = assay: MTT colorimetric in vitro growth inhibition assay; assay type: cell-based, human; conditions: read-out: IC50 (nM) T98G
Text: as §1, §2, §3, §4

HT-29 colon cancer cells = assay: MTT colorimetric in vitro growth inhibition assay; assay type: cell-based, human; conditions: read-out: IC50 (nM) HT-29
Text: as §1, §2, §3, §4

U373 glioma cells = assay: MTT colorimetric in vitro growth inhibition assay; assay type: cell-based, human; conditions: read-out: IC50 (nM) U373
Text: as §1, §2, §3, §4

A549 NSCLC cells = assay: MTT colorimetric in vitro growth inhibition assay; assay type: cell-based, human; conditions: read-out: IC50 (nM) A549
Text: as §1, §2, §3, §4

Hs683 glioma cells = assay: MTT colorimetric in vitro growth inhibition assay; assay type: cell-based, human; conditions: read-out: IC50 (nM) Hs683
Text: as §1, §2, §3, §4

SKMEL-28 melanoma cells = assay: MTT colorimetric in vitro growth inhibition assay; assay type: cell-based, human; conditions: read-out: IC50 (nM) SKMEL-28
Text: as §1, §2, §3, §4

[2] = test system: MCF-7 breast cancer cells; assay: MTT colorimetric in vitro growth inhibition assay; assay type: cell-based, human; conditions: read-out: IC50 (nM) MCF-7
Text: as §1, §2, §3, §4

[3] = test system: human cancer cells (A549, U373, Hs683, T98G, MCF-7, SKMEL-28, PC-3, HT-29); assay: MTT growth inhibition, mean over the eight human cancer cell lines; assay type: cell-based; conditions: 72 h, read-out: IC50 (nM) Mean ± SEM
Text: as §1, §2, §3, §4

human α3β1 NaK complex = target: T2, human α3β1 NaK complex (Homo sapiens, UniProt P13637); conditions: ref Katz et al. [5], cited from earlier work; for Kd: 3H-ouabain displacement, read-out: Affinity (nM) α-3 (KD ± SEM); for Selectivity α-1 / α-3: ratio of KD α-1 to KD α-3
T2 construct: made in house; host or cells: Pichia pastoris strain SMD1165 (membranes)

human α2β1 NaK complex = target: T3, human α2β1 NaK complex (Homo sapiens, UniProt P50993); conditions: ref Katz et al. [5], cited from earlier work; for Kd: 3H-ouabain displacement, read-out: Affinity (nM) α-2 (KD ± SEM); for Selectivity α-1 / α-2: ratio of KD α-1 to KD α-2
T3 construct: made in house; host or cells: Pichia pastoris strain SMD1165 (membranes)

[4] = Homo sapiens, 72 h, three days of culture, * three independent experiments, ** one experiment, six replicates
[5] = Homo sapiens, T98G, 72 h, three days of culture, * three independent experiments, ** one experiment, six replicates
[6] = Homo sapiens, HT-29, 72 h, three days of culture, * three independent experiments, ** one experiment, six replicates
[7] = Homo sapiens, U373 MG, 72 h, three days of culture, * three independent experiments, ** one experiment, six replicates
[8] = Homo sapiens, A549, 72 h, three days of culture, * three independent experiments, ** one experiment, six replicates
[9] = Homo sapiens, Hs 683, 72 h, three days of culture, * three independent experiments, ** one experiment, six replicates
[10] = Homo sapiens, SK-MEL-28, 72 h, three days of culture, * three independent experiments, ** one experiment, six replicates
[11] = Homo sapiens, MCF7, 72 h, three days of culture, * three independent experiments, ** one experiment, six replicates
[12] = mean over eight human cancer cell lines, three days of culture
[13] = three days of culture, * three independent experiments, ** one experiment, six replicates

SMILES	Kd (human α1β1 NaK complex)	IC50 [1, 4]	IC50 (T98G glioma cells; [5])	IC50 (HT-29 colon cancer cells; [6])	IC50 (U373 glioma cells; [7])	IC50 (A549 NSCLC cells; [8])	IC50 (Hs683 glioma cells; [9])	IC50 (SKMEL-28 melanoma cells; [10])	IC50 [2, 11]	IC50 [3, 12]	Kd (human α3β1 NaK complex)	Selectivity α-1 / α-3 (human α3β1 NaK complex)	Kd (human α2β1 NaK complex)	Selectivity α-1 / α-2 (human α2β1 NaK complex)	further results
C[C@@H]1O[C@@H](O[C@H]2CC[C@@]3(C)[C@@H](CC[C@@H]4[C@@H]3CC[C@]3(C)[C@@H](C5=CC(=O)OC5)CC[C@]43O)C2)[C@H](O)[C@H](O)[C@H]1O [Uzarigenin-rhamnoside]	90 ± 20 nM	77 nM	38 nM	41 nM	247 nM	45 nM	38 nM	222 nM	469 nM	147 ± 55 nM	122 ± 9 nM	0.7	96 ± 7 nM	0.9	
C[C@H]1O[C@@H](O[C@H]2[C@@H](O)C[C@H](O[C@H]3[C@@H](O)C[C@H](O[C@H]4CC[C@@]5(C)[C@H](CC[C@@H]6[C@@H]5CC[C@]5(C)[C@@H](C7=CC(=O)OC7)[C@@H](O)C[C@]65O)C4)O[C@@H]3C)O[C@@H]2C)C[C@H](O)[C@@H]1O [Gitoxin]	123 ± 8 nM										108 ± 17 nM	1.1	85 ± 3 nM	1.5	IC50 ([1]; Homo sapiens, 72 h): 361 nM; IC50 (T98G glioma cells; Homo sapiens, T98G, 72 h): 174 nM; IC50 (HT-29 colon cancer cells; Homo sapiens, HT-29, 72 h): 352 nM; IC50 (U373 glioma cells; Homo sapiens, U373 MG, 72 h): 351 nM; IC50 (A549 NSCLC cells; Homo sapiens, A549, 72 h): 68 nM; IC50 (Hs683 glioma cells; Homo sapiens, Hs 683, 72 h): 79 nM; IC50 (SKMEL-28 melanoma cells; Homo sapiens, SK-MEL-28, 72 h): 679 nM; IC50 ([2]; Homo sapiens, MCF7, 72 h): 828 nM; IC50 ([3]; Homo sapiens): 362 ± 96 nM
C[C@]12CC[C@H](O)C[C@H]1CC[C@@H]1[C@@H]2CC[C@]2(C)[C@@H](C3=CC(=O)OC3)[C@@H](O)C[C@]12O [Gitoxigenin, gitoxigenin]	500 ± 90 nM	3960 nM	3590 nM	4400 nM	4480 nM	1720 nM	653 nM	> 10000 nM	5190 nM	> 4250 nM	1050 nM	0.5	1180 nM	0.4	
C[C@]12CC[C@H](O)C[C@@H]1CC[C@@H]1[C@@H]2CC[C@]2(C)[C@@H](C3=CC(=O)OC3)CC[C@]12O [Uzarigenin]	1100 nM										1280 nM	0.9	883 ± 56 nM	1.3	IC50 [1, 13]: 6280 nM; IC50 (T98G glioma cells; [13]): 5140 nM; IC50 (HT-29 colon cancer cells; [13]): 6440 nM; IC50 (U373 glioma cells; [13]): 7920 nM; IC50 (A549 NSCLC cells; [13]): 3170 nM; IC50 (Hs683 glioma cells; [13]): 2250 nM; IC50 (SKMEL-28 melanoma cells; [13]): > 10000 nM; IC50 [2, 13]: > 10000 nM
